Source: patent EP1188765B1, “Medical Use of Mechanism-oriented inhibitors of dipeptidyl peptidase I” (Probiodrug AG, priority 1998, dated 2000)
Entries after “also recorded” stand apart in the source; their conditions may differ.

What was measured:
[1] = test system: DP I; conditions: literature (Nikawa et al., 1992); cited from earlier work
[2] = molecular target: T1, DP Ibovine (Bos taurus, UniProt Q3ZCJ8); experiment: Inactivation of DP I from bovine kidney (second-order rate constants); type: biochemical, Rinder
T1 construct: Inaktivierung der DP I aus Rinder- bzw. humaner Niere mittels H-Gly-Phe-NHO-Bz; from tissue; host or cells: bovine kidney
T1 sequence (Q3ZCJ8 231-394 limits assumed): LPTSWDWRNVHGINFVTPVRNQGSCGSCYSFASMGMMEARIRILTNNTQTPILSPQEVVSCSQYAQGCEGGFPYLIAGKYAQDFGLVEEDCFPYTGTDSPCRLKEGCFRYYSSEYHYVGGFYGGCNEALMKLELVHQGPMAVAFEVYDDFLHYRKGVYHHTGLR
T1 sequence (Q3ZCJ8 25-143 limits assumed): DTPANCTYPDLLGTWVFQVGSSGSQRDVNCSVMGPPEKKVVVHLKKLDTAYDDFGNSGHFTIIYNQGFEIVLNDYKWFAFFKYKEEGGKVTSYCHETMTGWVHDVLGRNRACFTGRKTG
T1 sequence (Q3ZCJ8 395-463 limits assumed): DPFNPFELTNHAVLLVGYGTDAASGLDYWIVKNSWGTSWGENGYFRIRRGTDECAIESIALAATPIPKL

[3] = molecular target: T2, DP Ihum (Homo sapiens, UniProt P53634); experiment: Inactivation of DP I from human kidney (second-order rate constants); type: biochemical
T2 construct: DP I (humane Niere); from tissue; host or cells: human kidney
T2 sequence (P53634 231-394 limits assumed): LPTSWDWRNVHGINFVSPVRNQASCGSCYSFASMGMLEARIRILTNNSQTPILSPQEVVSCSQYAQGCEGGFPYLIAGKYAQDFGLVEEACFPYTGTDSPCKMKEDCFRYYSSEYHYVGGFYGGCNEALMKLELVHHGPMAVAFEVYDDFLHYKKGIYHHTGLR
T2 sequence (P53634 25-143 limits assumed): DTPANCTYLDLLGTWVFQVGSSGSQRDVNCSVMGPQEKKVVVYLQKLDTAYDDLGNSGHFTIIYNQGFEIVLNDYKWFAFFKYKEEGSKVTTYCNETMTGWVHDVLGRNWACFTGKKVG
T2 sequence (P53634 395-463 limits assumed): as the sequence (Q3ZCJ8 395-463 limits assumed) above, with A22S, L26M, S38G, L61V counted along it

[4] = molecular target: T3, Cathepsin B (hum. Leber) (Homo sapiens, UniProt P07858); experiment: Inactivation of cathepsin B (second-order rate constants); type: biochemical; conditions: Table 3
T3 construct: Cathepsin B (hum. Leber); from tissue; host or cells: human liver

[5] = molecular target: T4, Cathepsin L (hum. Leber) (Homo sapiens, UniProt P07711); experiment: Inactivation of cathepsin L (second-order rate constants); type: biochemical; conditions: Table 3
T4 construct: Cathepsin L (hum. Leber); from tissue; host or cells: human liver
T4 sequence (P07711 114-333): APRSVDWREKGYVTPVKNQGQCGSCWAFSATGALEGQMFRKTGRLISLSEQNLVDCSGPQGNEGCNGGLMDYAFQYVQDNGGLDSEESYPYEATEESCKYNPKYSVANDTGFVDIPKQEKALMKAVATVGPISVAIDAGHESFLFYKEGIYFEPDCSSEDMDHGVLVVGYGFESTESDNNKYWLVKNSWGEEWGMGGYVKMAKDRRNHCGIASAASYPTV

[6] = molecular target: DP I (Homo sapiens, UniProt P53634); experiment: Protection of glucagon from degradation by DP I, MALDI-TOF mass spectra; type: biochemical; conditions: 0.14 mM Glukagon, 40 mM TRIS/HCl pH 7,6; enzyme 15 nM; inhibitor 300 nM, 5 min preincubation with DP I
DP I (Homo sapiens, UniProt P53634), sequence (P53634 25-463): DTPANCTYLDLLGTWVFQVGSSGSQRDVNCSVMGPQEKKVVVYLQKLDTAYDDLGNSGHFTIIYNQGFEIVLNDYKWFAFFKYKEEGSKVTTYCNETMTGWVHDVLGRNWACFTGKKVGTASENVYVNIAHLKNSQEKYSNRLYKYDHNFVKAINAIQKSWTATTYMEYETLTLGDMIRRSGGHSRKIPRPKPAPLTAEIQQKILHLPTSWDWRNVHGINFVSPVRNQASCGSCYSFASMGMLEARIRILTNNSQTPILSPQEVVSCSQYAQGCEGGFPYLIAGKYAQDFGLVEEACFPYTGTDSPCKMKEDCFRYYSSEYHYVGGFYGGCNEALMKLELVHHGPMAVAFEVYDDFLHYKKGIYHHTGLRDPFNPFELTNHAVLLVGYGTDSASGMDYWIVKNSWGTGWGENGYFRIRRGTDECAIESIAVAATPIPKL
Excerpt: Schutz des Abbaus des Peptidhormons Glukagon durch Vorinkubation von DP I mit H-Gly-Phe-NHO-Bz
Abbildung 1: MALDI-TOF-Massenspektren von Reaktionslösungen, die Glukagon und DP I enthalten.

[7] = test system: "DCE" (Dynorphin Converting Enzyme); conditions: Demuth et al. 1991; cited from earlier work
[8] = DP Ibovine, inhibitor concentration 1e^-4 M, Table 2
[9] = DP Ihum, inhibitor concentration 1e^-4 M, Table 2
[10] = DP Ibovine, inhibitor concentration 2e^-5 M, Table 2
[11] = DP Ihum, inhibitor concentration 2e^-5 M, Table 2

In the case of CC(C)C[C@H](NC(=O)[C@H]1O[C@@H]1C(=O)O)C(=O)NCCCCN=C(N)N [E-64], the “Inhibierung der DP I” value [1] is listed as “nur schwach inhibiert; also recorded: inert”.

For CC(=O)N[C@@H](CC(C)C)C(=O)N[C@@H](CC(C)C)C(=O)N[C@H](C=O)CCCNC(=N)N [Leupeptin], the “Inhibierung der DP I” value [1] is given as “nur schwach inhibiert”.

With C[C@H](NC(=O)OC(C)(C)C)C(=O)N1CCC[C@H]1C(=O)N[C@@H](Cc1ccccc1)C(=O)NOC(=O)c1ccccc1 [Boc-Ala-Pro-Phe-NHO-Bz] the kinact/Ki [2, 8] was “keine Hemmung (1e^-4)” and the kinact/Ki [3, 9] was “keine Hemmung (1e^-4)”.

NCC(=O)N[C@@H](Cc1ccccc1)C(=O)NOC(=O)c1ccccc1 [H-Gly-Phe-NHO-Bz, N-(H-Gly-Phe-),O-Benzoyl Hydroxylamin] showed a kinact/KI ([2]; DP I from bovine kidney, Table 1) of 36700 M⁻¹ s⁻¹, a kinact/Ki ([3]; DP I (humane Niere), Table 3) of 34979 s^-1M^-1 and a kinact/KI ([3]; DP I from human kidney, Table 1) of 35000 M⁻¹ s⁻¹. The kinact/KI [4] was 87 M⁻¹ s⁻¹, the kinact/KI [5] was 37 M⁻¹ s⁻¹ and the “Inhibierung des Glukagonabbaus durch DP I” value [6] was “Inhibierung des Glukagonabbaus”.

In the case of C[C@H](NC(=O)OC(C)(C)C)C(=O)N[C@@H](C)C(=O)N[C@@H](C)C(=O)NOC(=O)c1ccccc1 [Boc-Ala-Ala-Ala-NHO-Bz], the kinact/Ki [2, 8] is reported as “keine Hemmung (1e^-4)” and the kinact/Ki [3, 9] is reported as “keine Hemmung (1e^-4)”.

In the case of Cc1ccc(C(=O)ONC(=O)[C@H](Cc2ccccc2)NC(=O)CNC(=O)OCc2ccccc2)cc1 [Z-Gly-Phe-NHO-Bz-CH3], the kinact/Ki [2, 10] is reported as “keine Hemmung (2e^-5)” and the kinact/Ki [3, 11] is reported as “keine Hemmung (2e^-5)”.

For H-Ile-Pro-NHO-Nb, the kinact/Ki [2, 10] was 149 M⁻¹ s⁻¹ and the kinact/Ki [3, 11] was 208 M⁻¹ s⁻¹.

With C[C@H](NC(=O)OC(C)(C)C)C(=O)N[C@@H](C)C(=O)NOC(=O)c1ccccc1 [Boc-Ala-Ala-NHO-Bz] the kinact/Ki [2, 8] was “keine Hemmung (1e^-4)” and the kinact/Ki [3, 9] was “keine Hemmung (1e^-4)”.

For N[C@@H](Cc1ccc(O)cc1)C(=O)NCC(=O)NOC(=O)c1ccccc1 [H-Tyr-Gly-NHO-Bz], the kinact/KI ([2]; DP Ibovine, inhibitor concentration 1e^-6 M, Table 2) is given as 3950 M⁻¹ s⁻¹, the kinact/KI ([3]; DP Ihum, inhibitor concentration 1e^-6 M, Table 2) is given as 3620 M⁻¹ s⁻¹ and the “Inhibierung des Enzyms DCE” value [7] is given as “nur schwach und reversibel inhibiert”.

In the case of O=C(CNC(=O)OCc1ccccc1)N[C@@H](Cc1ccccc1)C(=O)NOC(=O)c1ccccc1 [Z-Gly-Phe-NHO-Bz], the kinact/Ki ([3]; DP I (humane Niere), Table 3) is reported as “Keine Hemmung”, the kinact/KI [4] is reported as 418 M⁻¹ s⁻¹ and the kinact/KI [5] is reported as 223 M⁻¹ s⁻¹.
